Assay results taken from patent US20240180838A1, “NANOPARTICLE (NP) COMPOSITIONS AND METHODS OF USE THEREOF” (RUTGERS, THE STATE UNIVERSITY OF NEW JERSEY, priority 2022, published 2024).
≈ marks a conversion by molar mass, not a printed value.

What was measured:
S. aureus = conditions: as reported in the literature; cited from earlier work
[1] = Thermogravimetric analysis, thermal stability; type: physicochemical; conditions: TG curve
Procedure: The amount of RFX loaded in DAMO/SBA is carefully determined by comparing the thermogravimetric (TG) traces of RFX/SBA and its parent material (DAMO-SBA), after normalizing the weight losses of the two curves at 100° C. (i.e., the temperature at which physisorbed water should be completely evaporated) (FIGS. 4A-4B). The comparison is done at 750° C., after most organic groups are removed from the samples. […] The decomposition profiles for pure RFX and copper(II) acetate, which is the salt used to immobilize Cu(II) ions into the material. As expected, RFX completely decomposes after 500° C. as it comprises mostly organic groups.

SMILES	Minimum inhibitory concentrations (MICs) (S. aureus) [µg/mL]	onset temperature of degradation [1] [°C]
CC[C@H]1OC(=O)[C@H](C)[C@@H](O[C@H]2C[C@@](C)(OC)[C@@H](O)[C@H](C)O2)[C@H](C)[C@@H](O[C@@H]2O[C@H](C)C[C@H](N(C)C)[C@H]2O)[C@](C)(O)C[C@@H](C)C(=O)[C@H](C)[C@@H](O)[C@]1(C)O [ERM, erythromycin]	32 (≈ 43.6 µM)	
O=C(Nc1ccc(Oc2ccc(Cl)cc2)c(Cl)c1)c1cc(I)cc(I)c1O [RFX, N-[3-Chloro-4-(4-chlorophenoxy)phenyl]-2-hydroxy-3,5-diiodobenzamide]		200
COc1cc(Cc2cnc(N)nc2N)cc(OC)c1OC [TRM, trimethoprim]	0.19 (≈ 0.654 µM)	
